# Measured values as given in article PMC9194863, “A novel small-molecule selective activator of homomeric GIRK4 channels” (The Journal of Biological Chemistry, 2022).
# Positions count from the first letter of the chain named.
# Key:
# Assay in all cases: two-electrode voltage clamp, Xenopus oocytes
# Assay type in all cases: cell-based
# [1] = target: T1, GIRK4 homomeric channel (GIRK4, G4) (Homo sapiens, UniProt P48544, I177V); settings: activator, high potassium ND96K
# T1 construct: gene KCNJ5; full-length GIRK4 in pGEMSH vector, homotetramer, expressed in Xenopus laevis oocytes
# T1 sequence (P48544 1-419 I177V): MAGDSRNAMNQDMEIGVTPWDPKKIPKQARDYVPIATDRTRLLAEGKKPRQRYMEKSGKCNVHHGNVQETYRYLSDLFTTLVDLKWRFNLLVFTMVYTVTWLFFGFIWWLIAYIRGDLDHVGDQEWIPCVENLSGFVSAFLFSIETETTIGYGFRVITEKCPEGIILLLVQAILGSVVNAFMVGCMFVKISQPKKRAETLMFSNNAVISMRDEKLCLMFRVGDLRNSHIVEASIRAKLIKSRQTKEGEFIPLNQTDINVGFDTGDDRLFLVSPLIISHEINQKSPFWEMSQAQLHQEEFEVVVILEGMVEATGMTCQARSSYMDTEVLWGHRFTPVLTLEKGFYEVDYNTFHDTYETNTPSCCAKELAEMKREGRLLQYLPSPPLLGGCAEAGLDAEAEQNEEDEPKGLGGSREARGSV
# [2] = target: T2, GIRK4 homomeric channel (GIRK4, G4) (Homo sapiens, UniProt P48544, L77I); settings: activator, high potassium ND96K
# T2 construct: gene KCNJ5; full-length GIRK4 in pGEMSH vector, homotetramer, expressed in Xenopus laevis oocytes
# T2 sequence (P48544 1-419 L77I): T1 sequence (P48544 1-419 I177V) with L77I, V177I
# [3] = target: T3, GIRK4 homomeric channel (GIRK4, G4) (Homo sapiens, UniProt P48544, L90A); settings: activator, high potassium ND96K
# T3 construct: gene KCNJ5; full-length GIRK4 in pGEMSH vector, homotetramer, expressed in Xenopus laevis oocytes
# T3 sequence (P48544 1-419 L90A): T1 sequence (P48544 1-419 I177V) with L90A, V177I
# GIRK2∗ (GIRK2:E152D) [4] = target: T4, GIRK2∗ (GIRK2:E152D) (Mus musculus, UniProt P48542, T80S/I82L/E152D); settings: activator, high potassium ND96K
# T4 construct: gene Kcnj6; GIRK2 E152D in pXOOM vector, homotetramer, expressed in Xenopus laevis oocytes
# T4 sequence (P48542 1-425 T80S/I82L/E152D): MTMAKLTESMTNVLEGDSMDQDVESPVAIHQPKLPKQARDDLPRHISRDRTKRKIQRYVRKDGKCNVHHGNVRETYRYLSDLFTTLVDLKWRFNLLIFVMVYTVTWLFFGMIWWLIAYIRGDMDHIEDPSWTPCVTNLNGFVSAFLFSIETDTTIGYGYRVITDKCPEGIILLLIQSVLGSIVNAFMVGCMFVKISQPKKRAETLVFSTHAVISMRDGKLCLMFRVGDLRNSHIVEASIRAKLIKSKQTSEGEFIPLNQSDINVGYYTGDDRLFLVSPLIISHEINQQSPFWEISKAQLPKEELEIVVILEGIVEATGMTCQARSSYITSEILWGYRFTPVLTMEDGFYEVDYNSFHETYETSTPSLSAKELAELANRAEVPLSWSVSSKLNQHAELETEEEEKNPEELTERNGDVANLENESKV
# [5] = target: T5, GIRK4 homomeric channel (GIRK4, G4) (Homo sapiens, UniProt P48544, F181A); settings: activator, high potassium ND96K
# T5 construct: gene KCNJ5; full-length GIRK4 in pGEMSH vector, homotetramer, expressed in Xenopus laevis oocytes
# T5 sequence (P48544 1-419 F181A): T1 sequence (P48544 1-419 I177V) with V177I, F181A
# GIRK2∗ (GIRK2:E152D) [6] = target: T6, GIRK2∗ (GIRK2:E152D) (Mus musculus, UniProt P48542, I82L/E152D); settings: activator, high potassium ND96K
# T6 construct: gene Kcnj6; GIRK2 E152D in pXOOM vector, homotetramer, expressed in Xenopus laevis oocytes
# T6 sequence (P48542 1-425 I82L/E152D): T4 sequence (P48542 1-425 T80S/I82L/E152D) with S80T
# [7] = target: T7, GIRK4 homomeric channel (GIRK4, G4) (Homo sapiens, UniProt P48544, G247R); settings: activator, high potassium ND96K
# T7 construct: gene KCNJ5; full-length GIRK4 in pGEMSH vector, homotetramer, expressed in Xenopus laevis oocytes
# T7 sequence (P48544 1-419 G247R): T1 sequence (P48544 1-419 I177V) with V177I, G247R
# [8] = target: T8, GIRK4 homomeric channel (GIRK4, G4) (Homo sapiens, UniProt P48544, S75T); settings: activator, high potassium ND96K
# T8 construct: gene KCNJ5; full-length GIRK4 in pGEMSH vector, homotetramer, expressed in Xenopus laevis oocytes
# T8 sequence (P48544 1-419 S75T): T1 sequence (P48544 1-419 I177V) with S75T, V177I
# [9] = target: T9, GIRK4 homomeric channel (GIRK4, G4) (Homo sapiens, UniProt P48544, S75A); settings: activator, high potassium ND96K
# T9 construct: gene KCNJ5; full-length GIRK4 in pGEMSH vector, homotetramer, expressed in Xenopus laevis oocytes
# T9 sequence (P48544 1-419 S75A): T1 sequence (P48544 1-419 I177V) with S75A, V177I
# [10] = target: T10, GIRK4 homomeric channel (GIRK4, G4) (Homo sapiens, UniProt P48544)
# T10 construct: gene KCNJ5; full-length GIRK4 in pGEMSH vector, homotetramer, expressed in Xenopus laevis oocytes
# T10 sequence (P48544 1-419): T1 sequence (P48544 1-419 I177V) with V177I
smiles,measurement,setting,value
"COc1ccc(C(=O)CC2(O)C(=O)N(Cc3cccc4ccccc34)c3ccccc32)cc1OC (stereo not shown) [3hi2one-G4, 3-[2-(3,4-dimethoxyphenyl)-2-oxoethyl]-3-hydroxy-1-(1-naphthylmethyl)-1,3-dihydro-2H-indol-2-one]",I/Ibasal at 30 μM,[1],"GIRK4:I177V, GIRK4:F181A, and GIRK4:I190A showed reduced 3hi2one-G4–induced currents"
same,I/Ibasal at 30 μM,[2],"GIRK4:I177V, GIRK4:F181A, and GIRK4:I190A showed reduced 3hi2one-G4–induced currents"
same,I/Ibasal at 30 μM,[3],"GIRK4:I177V, GIRK4:F181A, and GIRK4:I190A showed reduced 3hi2one-G4–induced currents"
same,current at 30 μM,GIRK2∗ (GIRK2:E152D) [4],GIRK2∗:I82L and GIRK2∗:T80S/I82L but not GIRK2:T80S could be activated by 3hi2one-G4
same,I/Ibasal at 30 μM,[5],"GIRK4:I177V, GIRK4:F181A, and GIRK4:I190A showed reduced 3hi2one-G4–induced currents"
same,current at 30 μM,GIRK2∗ (GIRK2:E152D) [6],GIRK2∗:I82L and GIRK2∗:T80S/I82L but not GIRK2:T80S could be activated by 3hi2one-G4
same,current at 30 μM,[7],"GIRK4:G247R, which is functional, was robustly activated by 3hi2one-G4"
same,I/Ibasal at 30 μM,[8],whereas a Thr mutation significantly but partially affected the compound’s effectiveness
same,I/Ibasal at 30 μM,[9],Mutation of residue S75 to Ala did not yield a significant change in the ability
same,EC50,[10],12.7 µM
